The source of these data is PubChem BioAssay AID179 (DTP/NCI, 2004).

This assay has as its system CEM cells HIV-1 protection, formazan growth assay. The experiment in a line: NCI AIDS Antiviral Assay. The conditions noted are these: for IC50: measured here: growth of uninfected CEM cells. In short, it runs like this:
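Protection of CEM cells against HIV-1 was scored from cell growth (soluble formazan) across five concentrations, with parallel uninfected cells. Lack of protection may reflect toxicity.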

Where “and” joins values, the source holds several entries; their conditions need not be identical. Identical values can stand only once. Calls of active or inactive are those of the source.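 How the source made its calls: active means compounds giving half or more protection of infected cells from virus-caused growth loss, again on retest; inactive means the rest.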

For orientation: EC50 means the concentration that produces a half-maximal response. The IC50 is the midpoint of a concentration-inhibition curve. Lower therefore signals greater potency.

Regarding `COc1cc2c(cc1OCCCCCN1C(=O)c3cccc4cccc(c34)C1=O)N=C[C@@H]1CCCN1C2=O`, the EC50 was above 2 µM and the IC50 worked out at 1.1 µM.

For `O=C1CCC2c3ccccc3NCN12` (stereo unspecified), the result was inactive.

Regarding `Cc1ccc(S(=O)(=O)OC2CSSCC2OS(=O)(=O)c2ccc(C)cc2)cc1` (stereo unspecified), the result was inactive.

As to `COc1ccc(-c2c(C#N)c(S)n(C3OC(CO)C(O)C(O)C3O)c(=O)c2C#N)cc1` (stereo unspecified), the EC50 is above 200 µM; the concentration for half-maximal inhibition (IC50) is 195 µM and > 200 µM.

Take `COC(=Nc1ccccc1)SSC(C)C`: the EC50 is above 200 µM and the IC50 was found to be 2.82 µM.

As to `CC1(C)OC2OC(COC(=O)c3ccc(C#N)cc3)C3OC(C)(C)OC3C2O1` (stereo unspecified), the outcome was inactive.

In the case of `CN(C)c1ccc(/C=N/NC(=S)Nc2ccccc2)cc1`, the EC50 is above 200 µM and the IC50 is above 200 µM.

On to `COC(=O)C(NC(=O)C(C)NC(=O)OC(C)(C)C)C(C)O` (stereo unspecified), for which the result was inactive.

With `COc1ccc(NC(=O)c2c(NC(C)=O)c(C#N)c3n2CCC3)cc1`, the EC50 is above 200 µM and the IC50 is above 200 µM.

For the compound `Clc1ccccc1C(SCc1ccccc1)SCc1ccccc1`, the EC50 was above 200 µM and the IC50 was found to be 195 µM.

As to `COc1ccc(C(=O)C#Cc2cnc(OC)nc2OC)cc1`, the EC50 was above 2 µM and the IC50 was 0.363 µM.

Turning to `CC(=O)c1ccc(NC(=O)C(=O)CC(=O)c2sc(-n3nc(-c4ccccc4)cc3-c3ccccc3)nc2C)cc1`, the EC50 was above 155 µM and the IC50 is above 155 µM.

Turning to `S=c1[nH]nc(CCCCCCCCc2n[nH]c(=S)o2)o1`, the outcome was inactive.

As for `CC(CO)C1=C(c2c[nH]c3ccccc23)C2C(C)C[C@H](O)C3(C)C(C)CCC(O)C23CC1` (stereo partly specified), the result was inactive.

With `[Ni+2].[O-]/C(=N\N=C\c1ccccn1)c1ccccc1O.[O-]/C(=N\N=C\c1ccccn1)c1ccccc1O`, the EC50 was above 200 µM and the IC50 is 6.17 µM.

As for `COC(=O)c1c/c(=N\NC(=O)CC(=O)Nc2ccccc2OC)c2ccccc2o1`, the EC50 is above 229 µM and the IC50 is above 229 µM.

With `CC1=C[C@H]2C[C@@]3(C)O[C@@H]([C@]4(C)CC[C@H]([C@@H](C)C(=O)O)OO4)CC3C(C)(C)[C@H]2CC1` (stereo partly specified), the outcome was inactive.

Turning to `COC(=O)N1N=C(c2ccccc2)C1c1ccccc1` (stereo unspecified), the EC50 was above 200 µM and the IC50 stood at 38 µM.

For the compound `CC(C)(C)OC(=O)NCC(CNC(=O)OC(C)(C)C)C(N)=O`, the EC50 was above 407 µM and the IC50 was above 407 µM.

As to `O=c1c2ccccc2n2nnc3cccc1c32`, the EC50 was above 23.4 µM and the IC50 is above 23.4 µM.

Turning to `CCN(CC)C(=O)CCn1cc(F)c(=O)[nH]c1=O`, the EC50 is above 977 µM and the IC50 was above 977 µM.

For `CCN(CC)c1ccc(N=C2C=CC(=O)c3ncccc32)c(C)c1`, the EC50 is above 11.7 µM and the IC50 was above 11.7 µM.

In the case of `O=c1nc2sc3ccc4ccccc4c3n2nc1-c1ccccc1`, the EC50 was above 49 µM and the IC50 is above 49 µM.

In the case of `Cc1ccc(S(=O)(=O)N2CC3(CN(S(=O)(=O)c4ccc(C)cc4)CC4(C2)OCCO4)OCCO3)cc1`, the EC50 was above 200 µM and the half-maximal inhibitory concentration (IC50) was 85.1 µM.

Regarding `CC(=O)[C@H]1CC[C@@H]2[C@]1(C)CC=C1[C@]23C=C[C@]2(C[C@@H](O)CC[C@]12C)C(C(=O)O)C3C(=O)O` (stereo partly specified), the outcome was inactive.

For `O=C1OC2(OC2c2ccc(Cl)cc2)c2ccccc21` (stereo unspecified), the EC50 is above 69.2 µM and the IC50 was above 69.2 µM.

In the case of `COC(=O)c1ccc(NCC2=C(Br)C(=O)C=CC2=O)cc1Cl`, the outcome was inactive.

Regarding `O=c1ccc2c(O)c3ccoc3cc2o1`, the EC50 is above 110 µM and the IC50 is 93.3 µM.

In the case of `CSc1ccc(NC(=O)Nc2cccc(C)n2)cc1`, the EC50 is above 200 µM and the 50% inhibitory concentration (IC50) is above 200 µM.

With `Cc1nc2ccc(Cl)cc2c2c1CCN2c1ccc(F)cc1`, the EC50 is above 200 µM and the IC50 is 11.5 µM.

As to `Nc1cccc(OCC2CCCN3CCCCC23)c1` (stereo unspecified), the EC50 is above 200 µM and the 50% inhibitory concentration (IC50) was 13.8 µM.

For `Cc1ccc(Sc2ccccc2[N+](=O)[O-])cc1`, the outcome was inactive.

As for `Cc1[se]c(N)nc1-c1ccccc1`, the result was inactive.

As to `BrCC[N+]12CC[N+](CCBr)(CC1)C2`, the EC50 is above 525 µM and the half-inhibitory concentration (IC50) was 25.7 µM.

With `CC(=O)c1ccc(NC(=O)CSc2nc(C)nc3c2sc(=S)n3-c2ccccc2)cc1`, the EC50 was above 200 µM and the IC50 is above 200 µM.

For the compound `O=P(O)(OCCc1ccccc1)Oc1ccccc1O`, the EC50 is above 200 µM and the half-maximal inhibitory concentration (IC50) was above 200 µM.

As for `CC(C)(C)N/N=C(\C(=O)Nc1cccc(Cl)c1)C1C(=O)Nc2ccccc2S1=O` (stereo unspecified), the result was inactive.

Turning to `CC(C)(C)c1ccc(OC(=O)Nc2ccc(O)c(C(=O)O)c2)cc1`, the EC50 is above 200 µM and the half-inhibitory concentration (IC50) is above 200 µM.

On to `CC1=NNC(=O)C1C1CC(c2c[nH]c3ccccc23)=Nn2c(-c3ccccc3)nnc21` (stereo unspecified), for which the EC50 is above 100 µM and the IC50 turned out to be 32.4 µM.

Regarding `Cc1oc2c(C)c3oc(=O)cc(C)c3cc2c1CO`, the EC50 is above 200 µM and the IC50 was 30.2 µM.

Regarding `CC(=O)O[C@H]1CC[C@@]2(C)C(=CC[C@H]3C4=CC=C(C(C)=O)[C@@]4(C)CCC32)C1` (stereo partly specified), the outcome was inactive.

With `CCN(CC)C(=O)C[n+]1c2ccccc2n2cc(N)ccc21`, the EC50 was above 200 µM and the IC50 was above 200 µM.

Consider `CC(C)(C)[Si](C)(C)OC[C@H]1O[C@@H](n2ccc(=O)[nH]c2=O)[C@H](O[Si](C)(C)C(C)(C)C)[C@]1(O)[C@H](Cl)C(N)=O`, for which the EC50 was above 200 µM and the IC50 was found to be 3.72 µM.

Turning to `O=C(C/C(CCC(=O)N(Cc1ccccc1)Cc1ccccc1)=N/Nc1ccc([N+](=O)[O-])cc1[N+](=O)[O-])c1ccccc1`, the outcome was inactive.

Turning to `C[C@@H]1c2ccc3c(c2C2(O)C[C@H]4CCC1N2C4)CC1[C@H]3CC(=O)C2C[C@@H](O)CC[C@@]21C` (stereo partly specified), the EC50 is above 155 µM and the IC50 was above 155 µM.

With `S=C1SCN2CCN3CSC(=S)N(CCN1C2)C3`, the EC50 was above 81.3 µM and the IC50 is above 81.3 µM.

As to `CC(=O)NNC(=S)/N=C/C(C(=O)Nc1ccccc1)=C(/C)O`, the EC50 was above 200 µM and the IC50 is above 200 µM.

With `Cc1cn(C2CC(CO)N(CCO)O2)c(=O)[nH]c1=O` (stereo unspecified), the EC50 is above 200 µM and the IC50 was above 200 µM.

Consider `COc1ccc2nc(N/N=C/c3sccc3C)cc(C)c2c1`, for which the EC50 is above 200 µM and the IC50 turned out to be 17.4 µM.

On to `COc1cc(C2c3cc4c(cc3[C@H](NC(=O)c3cccs3)C3COC(=O)[C@H]23)OCO4)cc(OC)c1OC` (stereo partly specified), for which the result was inactive.

With `COC1CC(OC2C(C)OC(OC3C(C)OC(OC4C(O)CC(O[C@H]5CC[C@@]6(C)C(=CC[C@]7(O)[C@@H]6C[C@@H](OC(=O)/C=C/c6ccccc6)[C@@]6(C)[C@]7(O)CC[C@@]6(O)C(C)=O)C5)OC4C)CC3OC)CC2OC)OC(C)C1O` (stereo partly specified), the EC50 was above 200 µM and the half-maximal inhibitory concentration (IC50) amounted to 37.2 µM.

With `Cc1c(Cl)ccc2c1NC(=O)C2(O)CC(=O)c1ccc(Cl)cc1` (stereo unspecified), the EC50 is above 31.6 µM and the IC50 is above 31.6 µM.

Regarding `CN=C(NC)NCc1ccccc1`, the EC50 is above 200 µM and the IC50 turned out to be 178 µM.
